The text below walks through data of ChEMBL document CHEMBL4765244, “Synthesis, bioconversion, pharmacokinetic and pharmacodynamic evaluation of N-isopropyl-oxy-carbonyloxymethyl prodrugs of CZh-226, a potent and selective PAK4 inhibitor” (Eur J Med Chem, 2020).

Series [1] can be described thus: Half life in Wistar rat assessed as (R)-(6-chloro-4-(5-cyclopropyl-1H-pyrazol-3-ylamino)quinazolin-2-yl)(3-methylpiperazin-1-yl)methanone hydrochloride at 13.5 mg/kg, po measured upto 24 hrs by LC/MS/MS analysis. The series is classed as ADME, organism-based. As to conditions: in vivo.
A short description of series [2]: AUC in Wistar rat assessed as (R)-(6-chloro-4-(5-cyclopropyl-1H-pyrazol-3-ylamino)quinazolin-2-yl)(3-methylpiperazin-1-yl)methanone hydrochloride at 13.5 mg/kg, po measured upto 24 hrs by LC/MS/MS analysis. The series is classed as ADME, organism-based. As to conditions: in vivo. On the set-up: route oral, dose 13.5 mg/kg, time <=24.
Series [3] is described as follows: Volume of distribution in Wistar rat assessed as (R)-(6-chloro-4-(5-cyclopropyl-1H-pyrazol-3-ylamino)quinazolin-2-yl)(3-methylpiperazin-1-yl)methanone hydrochloride at 2.5 mg/kg, iv measured upto 24 hrs by LC/MS/MS analysis. The class given is ADME, organism-based. Particulars: in vivo.
The nature of series [4]: Initial plasma concentration in Wistar rat assessed as (R)-(6-chloro-4-(5-cyclopropyl-1H-pyrazol-3-ylamino)quinazolin-2-yl)(3-methylpiperazin-1-yl)methanone hydrochloride at 2.5 mg/kg, iv measured upto 24 hrs by LC/MS/MS analysis. Particulars: in vivo. The class given is ADME, organism-based.
The subject of series [5] is B16-F10. The series can be described thus: Antitumor activity against mouse B16F10 cells xenografted in BABL/c nude mouse assessed as reduction in tumor volume at 50 mg/kg, po qd measured after 21 days. The series is classed as functional. Particulars: 504 h, time 21 day.
Series [6] in a line: Toxicity in […] nude mouse harboring mouse B16F10 cells assessed as body weight loss at 25 to 50 mg/kg, po qd measured after 21 days relative to control. The class given is organism-based. Particulars: in vivo, 504 h, dose 25-50 mg/kg, time 21 day.
In series [7] the test system is HCT-116. The series can be described thus: Antitumor activity against human HCT-116 cells xenografted in BABL/c nude mouse assessed as reduction in tumor weight at 25 mg/kg, po qd measured after 21 days. The series is classed as functional. As to conditions: HCT-116, po, 504 h, time 21 day.
A short description of series [8]: Half life in Wistar rat assessed as (R)-(6-chloro-4-(5-cyclopropyl-1H-pyrazol-3-ylamino)quinazolin-2-yl)(3-methylpiperazin-1-yl)methanone hydrochloride at 2.5 mg/kg, iv measured upto 24 hrs by LC/MS/MS analysis. The series is classed as ADME, organism-based. Particulars: in vivo.
A short description of series [9]: Chemical stability of the compound in pH 7.4 PBS buffer assessed as compound remaining measured after 2 hrs by HPLC analysis. The series is classed as physicochemical. Particulars: read-out: Stabilty.
The subject of series [10] is B16-F10. The series can be described thus: Antitumor activity against mouse B16F10 cells xenografted in BABL/c nude mouse assessed as reduction in tumor volume at 25 mg/kg, po qd measured after 21 days. The series is classed as functional. Particulars: 504 h, time 21 day.
Series [11] is described as follows: Stability of the compound in rat liver S9 fraction assessed as compound remaining measured after 60 mins at 37 degC by LC-MS/MS analysis. The series is classed as ADME, subcellular. Particulars: read-out: Stabilty.
Series [12] in a line: Prodrug conversion in human plasma assessed as release of active metabolite (R)-(6-chloro-4-(5-cyclopropyl-1H-pyrazol-3-ylamino)quinazolin-2-yl)(3-methylpiperazin-1-yl)methanone hydrochloride measured within 120 mins at 37 degC by HPLC analysis. The class given is ADME, cell-free. Particulars: 2 h.
Series [13] is described as follows: Chemical stability of the compound in pH 1.2 simulated gastric fluid buffer assessed as compound remaining measured after 2 hrs by HPLC analysis. The series is classed as physicochemical.
Series [14] in a line: Cmax in Wistar rat assessed as (R)-(6-chloro-4-(5-cyclopropyl-1H-pyrazol-3-ylamino)quinazolin-2-yl)(3-methylpiperazin-1-yl)methanone hydrochloride at 13.5 mg/kg, po measured upto 24 hrs by LC/MS/MS analysis. The series is classed as ADME, organism-based. On the set-up: route oral, dose 13.5 mg/kg, time <=24. Particulars: in vivo.
A short description of series [15]: AUC in Wistar rat assessed as (R)-(6-chloro-4-(5-cyclopropyl-1H-pyrazol-3-ylamino)quinazolin-2-yl)(3-methylpiperazin-1-yl)methanone hydrochloride at 2.5 mg/kg, iv measured upto 24 hrs by LC/MS/MS analysis. On the set-up: route intravenous, dose 2.5 mg/kg, time <=24. The class given is ADME, organism-based. Particulars: in vivo.
A short description of series [16]: Tmax in Wistar rat assessed as (R)-(6-chloro-4-(5-cyclopropyl-1H-pyrazol-3-ylamino)quinazolin-2-yl)(3-methylpiperazin-1-yl)methanone hydrochloride at 13.5 mg/kg, po measured upto 24 hrs by LC/MS/MS analysis. The series is classed as ADME, organism-based. Particulars: in vivo.
Series [17] in a line: Oral bioavailability in Wistar rat assessed as (R)-(6-chloro-4-(5-cyclopropyl-1H-pyrazol-3-ylamino)quinazolin-2-yl)(3-methylpiperazin-1-yl)methanone hydrochloride at 13.5 mg/kg measured upto 24 hrs by LC/MS/MS analysis. The series is classed as ADME, organism-based. As to conditions: in vivo.
Series [18] is described as follows: Toxicity in […] nude mouse harboring human HCT-116 cells assessed as body weight loss at 25 to 50 mg/kg, po qd measured after 21 days relative to control. The series is classed as organism-based. As to conditions: in vivo, 504 h, dose 25-50 mg/kg, time 21 day.
Series [19] in a line: Stability of the compound in human plasma assessed as compound remaining measured within 120 mins at 37 degC by HPLC analysis. Particulars: read-out: Stabilty. The class given is ADME, cell-free.
Series [20] deals with HCT-116. The series can be described thus: Antitumor activity against human HCT-116 cells xenografted in BABL/c nude mouse assessed as reduction in tumor weight at 50 mg/kg, po qd measured after 21 days. The series is classed as functional. As to conditions: HCT-116, po, 504 h, time 21 day.
A short description of series [21]: Chemical stability of the compound in pH 6.8 simulated intestinal fluid assessed as compound remaining measured after 2 hrs by HPLC analysis. The series is classed as physicochemical.
Series [22] is described as follows: AUC (0 to infinity) in Wistar rat assessed as (R)-(6-chloro-4-(5-cyclopropyl-1H-pyrazol-3-ylamino)quinazolin-2-yl)(3-methylpiperazin-1-yl)methanone hydrochloride at 13.5 mg/kg, po measured upto 24 hrs by LC/MS/MS analysis. The series is classed as ADME, organism-based. On the set-up: route oral, dose 13.5 mg/kg, time <=24. Particulars: in vivo.
The nature of series [23]: AUC (0 to infinity) in Wistar rat assessed as (R)-(6-chloro-4-(5-cyclopropyl-1H-pyrazol-3-ylamino)quinazolin-2-yl)(3-methylpiperazin-1-yl)methanone hydrochloride at 2.5 mg/kg, iv measured upto 24 hrs by LC/MS/MS analysis. The series is classed as ADME, organism-based. On the set-up: route intravenous, dose 2.5 mg/kg, time <=24. Particulars: in vivo.

On to `CC(C)C(=O)OCOC(=O)N1CCN(C(=O)c2nc(Nc3cc(C4CC4)[nH]n3)c3cc(Cl)ccc3n2)C[C@H]1C`, for which the figures for the t1/2 in series [1] and in [8] were 20.1 h and 7.1 h, respectively. Further, the AUC in series [2] was 129.7 ng·h/mL; in series [15] it was 1124.8 ng·h/mL; in [22], 470.8 ng·h/mL; in series [23], 1173.5 ng·h/mL. For the same compound, the Vd in series [3] turned out to be 21.6 L/kg. In series [4], the C0 was 4.13 µg/mL. Moreover, the inhibition in vivo at 50 mg/kg in the series with B16-F10 [5] is 63%; in the series with HCT-116 [20], 65%. Further, the Activity entry in series [6] and in series [18] was “Non-Toxic” each time. For the same compound, the inhibition in vivo at 25 mg/kg in the series with HCT-116 [7] worked out at 54%; with B16-F10 [10], 51%. The remaining at 2 h worked out at 93.5% in series [9] and 6.1% in series [19]. The remaining at 1 h in series [11] is 14%. Moreover, in series [12], the Drug metabolism worked out at 89.9%. Further, the figures for the Stability in [13] and in series [21] were 90% and 46%, respectively. The Cmax in series [14] worked out at 31.5 ng/mL. Further, the Tmax in series [16] came out at 4.98 min. Also, in [17], the F came out at 7.55%.
